The target in data set [1] is T1, JAK1 (Homo sapiens, UniProt P23458).
T1 construct: purchased Life technology
The data set is described as follows: Test for in vitro activity of JAK1 kinase (LANCE Ultra ULight peptide). The note with it: recombinant human JAK1, 38 uM ATP, 90 min. Format: biochemical. As to the method:
(§1) Test for in vitro activity of Jak1, Jak2, and Jak3 Kinase
(§2) Recombinant human […] of JAK1, JAK2 and JAK3 were purchased from Life technology. LANCE Ultra ULight™-JAK-1 (Tyr1023) peptide and LANCE Eu-W1024 Anti-phosphotyrosine (PT66) were purchased from PerkinElmer. Multimode ELISA, Envison(PerkinElmer) reader was used.
(§3) The test compound was diluted according to gradient of three times concentration with a final concentration of from 10 uM to 0.17 nM at 11 concentrations totally, each concentration with two complex holes, and the content of DMSO in the detection was 1%.
2 nM of JAK1 Protein kinase, 50 nM of LANCE Ultra ULight™-JAK-1(Tyr1023) peptide, 38 uM of ATP, 50 mM of HEPES (pH 7.5), 10 mM of MgCl2, 1 mM of EGTA, 2 mM of DTT, 0.01% BRIJ-35. Checker board is White Proxiplate 384-Plus plate (PerkinElmer). The reaction was carried out at room temperature for 90 min and the reaction system was 10 ul.
(§4) 10 ul detection reagent was added to reaction plate, wherein the final concentration of LANCE Eu-W1024 Anti-phosphotyrosine (PT66) was 2 nM, the final concentration of EDTA was […], incubated at room temperature for 60 min, with Envison reader.
(§5) The reading was converted to inhibition ratio (%) by the following formula: the inhibition ratio (%)=([…])/(Max−Min)×100%.

Data set [2] deals with T2, JAK2 (Homo sapiens, UniProt O60674).
T2 construct: purchased Life technology
The data set is described as follows: Test for in vitro activity of JAK2 kinase (LANCE Ultra ULight peptide). Format: biochemical. Conditions: recombinant human JAK2, 12 uM ATP, 60 min. As to the method: as §1, §2, §3
0.02 nM of JAK2 Protein kinase, 50 nM of LANCE Ultra ULight™-JAK-1(Tyr1023) peptide, 12 uM of ATP, 50 mM of HEPES (pH 7.5), 10 mM of MgCl2, 1 mM of EGTA, 2 mM of DTT, 0.01% BRIJ-35. Checker board is White Proxiplate 384-Plus plate (PerkinElmer). The reaction was carried out at room temperature for 60 min and the reaction system was 10 ul.
as §4, §5

Data set [3] in a line: Pharmacokinetic (PK) test in mice. Format: in vivo, DBA/1 mice. Conditions: for bioavailability / AUC(0-inf) / Cmax / half-life: mouse, plasma, po, DBA/1 mice, mean; for bioavailability: gavage vs tail vein injection; for AUC(0-inf) / Cmax / half-life: tail vein injection and gavage. As to the method: Pharmacokinetic (PK) Test
The clear solution obtained by dissolving the test compound was respectively administrated by tail vein injection and gavage into the mice DBA/1 mice (overnight fasting, 7 to 8 weeks old). After administration of the test compound, the mice in the vein injection group at 0.083, 0.25, 0.5, 1, 2, 4, 8 and 24 hours, and gavage group at 0.25, 0.5, 1, 2, 4, 8 and 24 hours, blood is collected from the mandibular vein and centrifuged to obtain plasma. The plasma concentration was determined by LC-MS/MS. The pharmacokinetic parameters were calculated by non-compartmental model linear logarithmic trapezoid method with using WinNonlin™ Version 6.3 pharmacokinetic software.

The test system of data set [4] is rat adjuvant arthritis model. The data set is described as follows: Rat adjuvant-induced arthritis model efficacy test. Format: in vivo. The note with it: Lewis rats, oral; for AUC (%): two weeks of administration from day 13; for arthritis inhibitory activity (in words): swollen foot volume and score. As to the method: Rat Adjuvant-Induced Arthritis Model Efficacy Test
The effect of the compounds of the present invention on the treatment of arthritis was verified by rat adjuvant arthritis models.
Female, Lewis rats with body weight 160-180 g were anesthetized with isoflurane and was injected with 0.1 ml of mycobacterium tuberculosis suspension subcutaneously in the left posterior foot. After modeling for 13 days, the corresponding test compound was administrated, such as that the rats were respectively administrated with 1 mpk, 3 mpk, 10 mpk of the test compound WX614, 10 mpk of the test compound WX552, and 10 mpk of the test compound WX591 dissolved in a mixed solvent of DMSO/PEG400/H2O, and orally administered to female Lewis rats (10 rats in each dose group). Two weeks after continuous administration, the state of the rats was observed and the volume of the swollen foot was recorded and scored.

In data set [5] the test system is mouse collagen-induced arthritis model. The data set is described as follows: Mouse collagen-induced arthritis model efficacy test. Conditions: CIA mice, oral, 2 weeks. Format: in vivo, DBA/1 male mice. As to the method: Mouse Collagen-Induced Arthritis Model Efficacy Test
The effect of the compounds of the present invention on the treatment of arthritis was verified by the mouse collagen-induced arthritis model.
The DBA/l male mice were selected and injected subcutaneously with the emulsions of collagen and Freund's complete adjuvant at base of tail on day 0 and day 21, and on day 29 the mice was divided into groups. The compound WX6144 (3 mpk, 10 mpk, 30 mpk) was dissolved in DMSO/PEG400/H2O [5/20/75 (v/v/v)] and administered orally to CIA mice (Shanghai SLAC Laboratory Animal Co., Ltd, 10 mice in each dose group), and the mice were continuously administrated for 2 weeks, the weight of mice were recorded and the arthritis of mice was clinically scored.

T1 sequence (P23458 whole entry): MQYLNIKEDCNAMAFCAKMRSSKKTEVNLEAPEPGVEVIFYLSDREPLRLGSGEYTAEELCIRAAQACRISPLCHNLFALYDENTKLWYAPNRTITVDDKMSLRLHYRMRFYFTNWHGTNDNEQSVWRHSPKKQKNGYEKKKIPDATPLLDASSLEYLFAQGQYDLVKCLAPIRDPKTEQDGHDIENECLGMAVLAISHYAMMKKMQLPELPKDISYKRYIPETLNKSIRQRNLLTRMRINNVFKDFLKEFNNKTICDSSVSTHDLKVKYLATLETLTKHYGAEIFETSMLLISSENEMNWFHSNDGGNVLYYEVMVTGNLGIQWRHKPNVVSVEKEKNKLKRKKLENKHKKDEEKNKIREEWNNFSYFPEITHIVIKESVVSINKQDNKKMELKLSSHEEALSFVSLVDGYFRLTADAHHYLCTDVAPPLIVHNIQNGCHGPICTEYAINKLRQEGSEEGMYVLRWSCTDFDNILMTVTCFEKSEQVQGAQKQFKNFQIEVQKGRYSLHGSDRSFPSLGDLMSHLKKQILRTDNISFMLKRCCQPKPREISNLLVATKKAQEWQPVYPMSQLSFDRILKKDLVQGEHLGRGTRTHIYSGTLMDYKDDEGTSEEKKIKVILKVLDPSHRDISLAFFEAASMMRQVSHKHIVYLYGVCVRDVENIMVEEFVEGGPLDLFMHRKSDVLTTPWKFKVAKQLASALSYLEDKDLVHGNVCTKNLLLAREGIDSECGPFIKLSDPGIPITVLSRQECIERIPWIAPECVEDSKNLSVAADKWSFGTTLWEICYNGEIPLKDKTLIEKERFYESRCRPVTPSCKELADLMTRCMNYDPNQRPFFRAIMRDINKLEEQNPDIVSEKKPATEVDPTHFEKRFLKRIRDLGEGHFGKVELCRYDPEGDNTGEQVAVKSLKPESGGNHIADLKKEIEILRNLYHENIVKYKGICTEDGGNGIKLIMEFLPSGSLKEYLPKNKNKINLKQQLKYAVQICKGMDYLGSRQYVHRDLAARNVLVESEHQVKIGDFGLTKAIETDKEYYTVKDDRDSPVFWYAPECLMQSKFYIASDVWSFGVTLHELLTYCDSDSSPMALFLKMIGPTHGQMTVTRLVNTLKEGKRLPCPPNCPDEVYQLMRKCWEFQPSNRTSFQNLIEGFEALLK
T2 sequence (O60674 whole entry): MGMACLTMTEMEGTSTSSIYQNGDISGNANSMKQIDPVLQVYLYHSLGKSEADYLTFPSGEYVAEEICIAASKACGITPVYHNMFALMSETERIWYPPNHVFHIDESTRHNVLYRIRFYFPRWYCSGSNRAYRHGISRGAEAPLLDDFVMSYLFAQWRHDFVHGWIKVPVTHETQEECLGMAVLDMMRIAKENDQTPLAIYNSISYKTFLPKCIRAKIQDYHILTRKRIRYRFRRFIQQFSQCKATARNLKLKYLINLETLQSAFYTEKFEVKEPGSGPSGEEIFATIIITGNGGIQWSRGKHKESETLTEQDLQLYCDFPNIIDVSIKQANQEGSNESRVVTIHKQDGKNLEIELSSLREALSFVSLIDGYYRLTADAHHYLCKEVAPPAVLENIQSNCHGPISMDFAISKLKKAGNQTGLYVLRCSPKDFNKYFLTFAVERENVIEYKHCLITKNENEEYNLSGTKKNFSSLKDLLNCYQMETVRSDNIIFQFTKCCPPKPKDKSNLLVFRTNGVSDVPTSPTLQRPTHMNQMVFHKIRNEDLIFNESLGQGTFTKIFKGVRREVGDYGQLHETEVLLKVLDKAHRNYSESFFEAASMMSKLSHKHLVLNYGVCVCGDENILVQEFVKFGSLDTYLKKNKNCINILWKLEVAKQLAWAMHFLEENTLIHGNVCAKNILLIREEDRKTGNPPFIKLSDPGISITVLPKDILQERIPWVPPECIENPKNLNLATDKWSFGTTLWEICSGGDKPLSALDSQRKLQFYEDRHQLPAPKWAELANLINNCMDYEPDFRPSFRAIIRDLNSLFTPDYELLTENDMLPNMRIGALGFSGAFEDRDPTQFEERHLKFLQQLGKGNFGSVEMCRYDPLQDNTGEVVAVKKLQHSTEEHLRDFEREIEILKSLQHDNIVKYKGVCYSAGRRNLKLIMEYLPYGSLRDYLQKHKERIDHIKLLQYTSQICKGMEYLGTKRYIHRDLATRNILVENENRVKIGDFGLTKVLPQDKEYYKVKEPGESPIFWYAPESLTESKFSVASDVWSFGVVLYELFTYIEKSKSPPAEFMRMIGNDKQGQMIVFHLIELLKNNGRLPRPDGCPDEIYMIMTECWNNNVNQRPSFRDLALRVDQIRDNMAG

Take `CN(c1ncnc2[nH]ccc12)C1CCn2cc(CC#N)nc2C1` (racemic) [WX552, 2-[7-[methyl(7H-pyrrolo[2,3-d]pyrimidine-4-yl)amino]-5,6,7,8-tetrahydroimidazo[1,2-a]pyridine-2-yl]acetonitrile]: in data set [1], the IC50 fell in the range of 10 to 100 nM. Also, in data set [2], the IC50 is 100 to 1000 nM. Also, in data set [3], the “oral bioavailability and exposure in mice (in words)” value (“oral bioavailability and exposure” below) was “good oral bioavailability and higher exposure”; the bioavailability worked out at 74.4%; the AUC(0-inf) stood at 11.4 µM·h; the Cmax came to 3.72 µM. Moreover, the half-life in data set [3] is 1.18 h. For the same molecule, the “AUC (%)” value in data set [4] (10 mg/kg) stood at 31.7%. The “arthritis inhibitory activity (in words)” value in data set [4] is “good arthritis inhibitory activity”.
Turning to `CN(c1ncnc2[nH]ccc12)C1CCn2cc(C#N)nc2C1` (racemic) [WX591, 7-[methyl-[7 hydropyrrolo[2,3-d]pyrimidine-4-yl]amino]-5,6,7,8-tetrahydroimidazo [1,2-a]pyridine-2-nitrile], the IC50 in data set [1] was in the range of 10 to 100 nM. Besides, in data set [2], the IC50 lay within 100 to 1000 nM. In addition, in data set [3], the “oral bioavailability and exposure” value is “good oral bioavailability and higher exposure”; the bioavailability was 87%; the AUC(0-inf) amounted to 10.5 µM·h; the concentration peaked (Cmax) at 3.02 µM. In data set [3], this molecule showed a half-life of 2.26 h. Also, in data set [4] (10 mg/kg), the “AUC (%)” value was 44.7%. In data set [4], the “arthritis inhibitory activity (in words)” value is reported as “good arthritis inhibitory activity”.
Take `CN(c1ncnc2[nH]ccc12)C1CCn2cc(CC#N)nc2C1` (single isomer, unassigned) [WX612, (S or R) 2-[7-[methyl(7H-pyrrolo[2,3-d]pyrimidine-4-yl)amino]-5,6,7,8-tetrahydroimidazo[1,2-a]pyridine-2-yl]acetonitrile]: the IC50 in data set [1] and in data set [2] was more than 1000 nM in each case.
Consider `CN(c1ncnc2[nH]ccc12)C1CCn2cc(CC#N)nc2C1` (single isomer, unassigned) [WX613, (R or S)2-[7-[methyl(7H-pyrrolo[2,3-d]pyrimidine-4-yl)amino]-5,6,7,8-tetrahydroimidazo [1,2-a]pyridine-2-yl]acetonitrile], for which the results for the IC50 in data set [1] and in data set [2] were 10 to 100 nM and 100 to 1000 nM, respectively.
As for `CN(c1ncnc2[nH]ccc12)[C@H]1CCn2cc(C#N)nc2C1` (single isomer, unassigned) [WX614, (S or R) 7-[methyl-[7 hydropyrrolo[2,3-d]pyrimidine-4-yl]amino]-5,6,7,8-tetrahydroimidazo[1,2-a]pyridine-2-nitrile], the results for the IC50 in data set [1] and in data set [2] were not above 10 nM and 10 to 100 nM, respectively. Further, in data set [3], the “oral bioavailability and exposure” value was “good oral bioavailability and higher exposure”. This molecule also yielded a bioavailability in data set [3] of 73.9%. For the same molecule, the AUC(0-inf) in data set [3] stood at 10.2 µM·h. This molecule also showed a Cmax in data set [3] of 3.09 µM. Besides, the half-life in data set [3] is 1.76 h. The “AUC (%)” value was 20.2% in data set [4] (1 mg/kg); 50.2% in data set [4] (3 mg/kg); 61.8% in data set [4] (10 mg/kg); 42.4% in data set [5] (3 mg/kg); 51.3% in data set [5] (10 mg/kg); 82.5% in data set [5] (30 mg/kg). In addition, in data set [4], the “arthritis inhibitory activity (in words)” value is on record as “good arthritis inhibitory activity”. In data set [5] (clinical score), the “therapeutic effect on mouse rheumatoid arthritis (in words)” value is reported as “significant therapeutic effect”.
As for `CN(c1ncnc2[nH]ccc12)[C@@H]1CCn2cc(C#N)nc2C1` (single isomer, unassigned) [WX615, (R or S) 7-[methyl-[7 hydropyrrolo[2,3-d]pyrimidine-4-yl]amino]-5,6,7,8-tetrahydroimidazo [1,2-a]pyridine-2-nitrile], the IC50 in data set [1] and in data set [2] was more than 1000 nM throughout.
With `CCOC(=O)c1cn2c(n1)CC(N(C)c1ncnc3[nH]ccc13)CC2` (centres unmarked) [WX550, ethyl 7-[methyl(7H-pyrrolo[2,3-d]pyrimidine-4-yl)amino]-5,6,7,8-tetrahydroimidazo[1,2-a]pyridine-2-carboxylate], the IC50 is 100 to 1000 nM in data set [1] and more than 1000 nM in data set [2].
In the same order, the values of `CN(c1ncnc2[nH]ccc12)C1CCn2cc(CO)nc2C1` (centres unmarked) [WX551] are 100 to 1000 nM and more than 1000 nM.
In the same order, the values of `CN(c1ncnc2[nH]ccc12)C1CCn2cc(C(=O)NCC(F)(F)F)nc2C1` (centres unmarked) [WX579] are 100 to 1000 nM and more than 1000 nM.
Regarding `CN(c1ncnc2[nH]ccc12)C1CCn2cc(C(=O)NCC(F)F)nc2C1` (centres unmarked) [WX580], the IC50 in data set [1] was 100 to 1000 nM; in data set [2], more than 1000 nM.
In the case of `CN(c1ncnc2[nH]ccc12)C1CCn2cc(C(=O)NCC#N)nc2C1` (centres unmarked) [WX581], the IC50 in data set [1] was 100 to 1000 nM; in data set [2], more than 1000 nM.
As for `CN(c1ncnc2[nH]ccc12)C1CCn2cc(C(=O)NCCS(C)(=O)=O)nc2C1` (centres unmarked) [WX592], the IC50 in data set [1] and in data set [2] was more than 1000 nM in each case.
As to `CN(c1ncnc2[nH]ccc12)C1CCn2cc(C(=O)NC3CC(F)(F)C3)nc2C1` (centres unmarked) [WX593, N-(3,3-difluorocyclobutyl)-7-[methyl(7H-pyrrolo[2,3-d]pyrimidine-4-yl]amino]-5,6,7,8-tetrahydroimidazo [1,2-a]pyridine-2-carboxamide], the IC50 in data set [1] and in data set [2] was more than 1000 nM in each case.
In the case of `CNC(=O)c1cn2c(n1)CC(N(C)c1ncnc3[nH]ccc13)CC2` (centres unmarked) [WX604], the IC50 in data set [1] was 100 to 1000 nM; in data set [2], more than 1000 nM.
In the same order, the values of `CNCc1cn2c(n1)CC(N(C)c1ncnc3[nH]ccc13)CC2` (centres unmarked) [WX605, N-methyl-N-[2-(methylaminomethyl)-5,6,7,8-tetrahydroimidazo[1,2-a]pyridine-7-yl]-7H-7H-pyrrolo[2,3-d]pyrimidine-4-amine] are more than 1000 nM and more than 1000 nM.
In the same order, the values of `CN(c1ncnc2[nH]ccc12)C1CCn2cc(CNS(C)(=O)=O)nc2C1` (centres unmarked) [WX606, N-((7-(methyl-(7H-pyrrolo[2,3-d]pyrimidine-4-yl)amine)-5,6,7,8-tetrahydroimidazo[1,2-a]pyridine-2-yl)methyl)methanesulfonamide] are 100 to 1000 nM and more than 1000 nM.

Values taken from patent US10174056B2, “Substituted pyrrolo[2,3-d]pyrimidines as janus kinase inhibitors” (WUXI FORTUNE PHARMACEUTICAL CO., LTD, priority 2015, dated 2019).
